Patent US20250213478A1, “CATIONIC LIPID HAVING DISULFIDE BOND, LIPID MEMBRANE STRUCTURE INCLUDING SAME, NUCLEIC ACID INTRODUCTION AGENT AND PHARMACEUTICAL COMPOSITION CONTAINING ANY ONE OF SAME, METHOD FOR INTRODUCING NUCLEIC ACID INTO CELL OR TARGET CELL, AND METHOD FOR PRODUCING CELLULAR PHARMACEUTICAL” (NOF Corporation, priority 2022, published 2025)

Key:
[1] = test system: BALB/c mouse; assay: Evaluation of in vivo gene expression (luciferase mRNA-encapsulating LNP, IVIS of isolated organs)
Protocol: (§1) LNP encapsulating mRNA that expresses luciferase (cationic lipid:DOPC:Chol:DMG-PEG2k=55:5:40:1 (molar ratio)) was prepared by the method described in [Experimental Example 2], 1.
The prepared each mRNA-encapsulating LNP dispersion was administered from the tail vein of BALB/c mouse (male, 5-week-old). The dose of mRNA was set to 0.05 mg per 1 kg body weight of the mouse, and the dose of the mRNA-encapsulating LNP dispersion was set to 10 μL per 1 g body weight of the mouse. After 4.5 hr from the administration of the mRNA-encapsulating LNP dispersion, a PBS solution of D-luciferin potassium was administered into the abdominal cavity of the mouse. The dose of D-luciferin potassium was set to 3 mg per mouse, and the dose of the PBS solution of D-luciferin potassium was set to 200 μL per mouse. After 15 min from the administration of the PBS solution of D-luciferin potassium, the mouse was euthanized, and the liver, spleen, kidney, heart, and lung were isolated. The luminescence in each organ was quantified using an in vivo imaging system (IVIS) with an exposure of 10 sec. The amount of luminescence in each organ was quantified by image analysis using Live Imaging software attached to IVIS. The amount of luminescence (photons/sec) was calculated from the acquired image and used as an index of gene expression activity. “E+0a” (a: integer) indicated in Table 7 and Table 8 means “10^a”. For example, “1.0E+02” means “1.0×10^2”. In Comparative Example, the cationic lipid described in the aforementioned Table 3 were used.

[2] = Measurement of Liposomal pKa of LNP (TNS fluorescence); type: physicochemical; conditions: LNP without nucleic acid, cationic lipid:DOPC:Chol=52.5:7.5:40 + about 1.5 mol DMG-PEG2k; pH at which relative TNS fluorescence intensity was 50%
Protocol: Lipid nanoparticles (LNP) without containing nucleic acid were used for the evaluation of Liposomal pKa.
(§2) A 10 mM ethanol solution of cationic lipid, a 5 mM ethanol solution of DOPC, and a 10 mM ethanol solution of Chol were mixed at desired ratio (cationic lipid:DOPC:Chol=52.5:7.5:40 (molar ratio)) in an Eppendorf tube to achieve the total lipid amount of 720 nmol. To the obtained mixture was further added DMG-PEG2k (2 mM ethanol solution) in an amount of about 1.5 mol with respect to the total amount 100 mol of cationic lipid, DOPC, and Chol, and then ethanol was added to prepare an ethanol solution of the lipid (total amount: 360 μL).
(§3) An acidic malic acid buffer (20 mM, pH 3.0) (1080 μL) containing NaCl at a final concentration of 30 mM and an ethanol solution (360 μL) of lipid were each weighed in a syringe. Using an ultra high-speed nanomedicament producing apparatus NanoAssmblr (manufactured by Precision NanoSystems), LNP was prepared under the conditions of addition rate of acidic buffer solution: 3 mL/min, addition rate of ethanol solution of lipid: 1 mL/min, and syringe holder temperature: 25° C., and collected in a 15 mL tube. MES buffer (pH 6.5) (3000 μL) was added to the 15 mL tube, the obtained mixture was transferred to Amicon Ultra 4, and ultrafiltration was performed under centrifugation conditions (25° C., 1000 g, 6 min) to concentrate the mixture to about 100 μL. The obtained concentrate was diluted with PBS to 4 mL, and the mixture was concentrated again under centrifugation conditions (25° C., 1000 g, 6 min), and this operation was performed twice. The obtained concentrate was diluted with PBS to a lipid concentration of 0.5 mM to give a dispersion containing LNP.
20 mM Citrate buffer, sodium phosphate buffer, and tris HCl buffer, each containing NaCl at a final concentration of 150 mM and adjusted to various pHs within the range of pH 3.0 to 10.0, were prepared. TNS (manufactured by Sigma) was diluted with ultrapure water to 0.6 mM. TNS solution (2 μL), dispersions (12 μL) containing LNP prepared in [Experimental Example 1], 1., and buffers adjusted to various pHs (186 μL) were added to a black 96 well plate. The plate was protected from light and shaken at 400 rpm for 10 min. The fluorescence intensity (excitation: 321 nm/emission: 447 nm) was measured using a plate reader (manufactured by TECAN). The relative fluorescence intensity was calculated as a percentage, with the maximum value of the fluorescence intensity in each LNP being 100% and the minimum value being 0%. Furthermore, the pH at which the relative fluorescence intensity was 50% was taken as Liposomal pKa. In Comparative Example, the cationic lipid described in the aforementioned Table 3 were used.

[3] = Particle size, PdI and zeta potential of mRNA-encapsulating LNPs (dynamic light scattering); type: physicochemical; conditions: mRNA-encapsulating LNP, cationic lipid:DOPC:Chol=55:5:40 + about 1 mol DMG-PEG2k; for PdI / particle size: dynamic light scattering; for zeta potential: physiological pH
Protocol: as §2, with “lipid:DOPC:Chol=55:5:40” for “lipid:DOPC:Chol=52.5:7.5:40”, “1” for “1.5”
An acidic buffer solution (total amount: 1080 μL) of nucleic acid was prepared by weighing 7.2 μg of mRNA solution (0.6 mg/mL) in a 5 mL tube and adding acidic malate buffer (20 mM, pH 3.0) containing NaCl at a final concentration of 30 mM.
as §3, with “buffer solution of nucleic” for “malic”, “acid” for “acid buffer (20 mM, pH 3.0) (1080 μL) containing NaCl at a final concentration of 30 mM”, “solution” for “solution (360 μL)”, “solution of nucleic acid:” for “solution:”, “2” for “0.5”
The particle size, PdI (Polydispersity Index), and zeta potential of the mRNA-encapsulating LNP prepared by the method of the above-mentioned 1 were measured by a dynamic light scattering method. In Comparative Example, the cationic lipid described in the aforementioned Table 3 were used.

[4] = test system: HeLa cells; assay: Evaluation of in vitro gene expression in HeLa cell (luciferase mRNA-encapsulating LNP); type: cell-based, human; conditions: for cumulative luciferase luminescence intensity over 24 hr: luciferase mRNA 0.4 μg per dish, LNP cationic lipid:DOPC:Chol:DMG-PEG2k=55:5:40:1; for gene expression activity compared to Comparative Example: result in words
Protocol: as §1
HeLa cells, which are human cervical cancer cells, were seeded in a 3.5 cm dish at 5.0×10^4 cells/2 mL/Dish 24 hours before transfection. After 24 hours, the medium was exchanged with a culture medium (D-MEM) containing 0.1 mM D-luciferin. Prepared mRNA-encapsulating LNP was diluted with PBS such that the concentration of mRNA was about 8 μg/mL. The diluted mRNA-encapsulating LNP solution (about 50 μL, mRNA: 0.4 μg) was added to the 3.5 cm dish and set in an incubator luminometer KronosDio. The luminescence intensity of luciferase was measured for 2 min every one hour. The cumulative luciferase luminescence intensity for 24 hr was calculated from the obtained time change of expression. For example, “1.0E+06” means “1.0×10^6”. In Comparative Example, the cationic lipid described in the aforementioned Table 3 were used.

| SMILES | pKa [2] | PdI [3] | particle size [3] [nm] | zeta potential [3] [mV] | relative value based on Comparative Example (amount of luminescence in spleen) ([1]; spleen, relative to O-Ph-P4C2 LNP = 1.00) | amount of luminescence in spleen ([1]; tail vein, mRNA 0.05 mg/kg, spleen (Table 8)) [photons/sec] | cumulative luciferase luminescence intensity over 24 hr [4] [RLU] | gene expression activity compared to Comparative Example [4] |
| --- | --- | --- | --- | --- | --- | --- | --- | --- |
| CCCCCCCC/C=C\CCCCCCCC(=O)Oc1ccc(CC(=O)OCCC2CCN(CCSSCCN3CCC(CCOC(=O)Cc4ccc(OC(=O)CCCCCCC/C=C\CCCCCCCC)cc4)CC3)CC2)cc1 [Comparative Example, O-Ph-P4C2, reference compound] | 6.3 | 0.064 | 73 | −1.5 | 1.00 | 1.08E+07 | 1.11E+07 |  |
| CCCCCCCCCCC(CCCCCCCCCC)C(=O)Oc1ccc(CC(=O)OCCSSCCOC(=O)CCCN(C)C)cc1 [Example 5] | 7.8 | 0.081 | 74 | −2.9 |  |  | 2.15E+08 | superior gene expression activity |
| CCCCCCCCCCCCCCCCC(CCCCCCCCCCCCCCCC)C(=O)Oc1ccc(CC(=O)OCCSSCCOC(=O)CCCN2CCCCC2)cc1 [Example 11] | 7 | 0.079 | 86 | −0.9 |  |  | 6.71E+07 | superior gene expression activity |
| CCCCCCCC/C=C\CCCCCCCC(=O)Oc1ccc(CC(=O)OCCSSCCOC(=O)CCCN(C)C)cc1OC(=O)CCCCCCC/C=C\CCCCCCCC [Example 15] | 6.3 | 0.112 | 65 | 6.0 |  |  | 8.22E+07 | superior gene expression activity |
| CCCCCCCCCCCCCCCCC(CCCCCCCCCCCCCCCC)C(=O)Oc1ccc(CC(=O)NCCSSCCNC(=O)CN(C)C)cc1 [Example 18] | 6.8 | 0.132 | 105 | 5.3 |  |  | 3.99E+06 |  |
| CCCCCCCCCCCCCCCCC(CCCCCCCCCCCCCCCC)C(=O)Oc1ccc(CC(=O)NCCSSCCNC(=O)CCN(C)C)cc1 [Example 19] | 8.2 | 0.121 | 73 | 13.1 |  |  | 2.55E+07 | superior gene expression activity |

Continued, in another order:

| pKa [2] | PdI [3] | particle size [3] [nm] | zeta potential [3] [mV] | SMILES | relative value based on Comparative Example (amount of luminescence in spleen) ([1]; spleen, relative to O-Ph-P4C2 LNP = 1.00) | amount of luminescence in spleen ([1]; tail vein, mRNA 0.05 mg/kg, spleen (Table 8)) [photons/sec] | cumulative luciferase luminescence intensity over 24 hr [4] [RLU] | gene expression activity compared to Comparative Example [4] |
| --- | --- | --- | --- | --- | --- | --- | --- | --- |
| 7.8 | 0.101 | 72 | 5.3 | CCCCCCCCCCCCCCCCC(CCCCCCCCCCCCCCCC)C(=O)Oc1ccc(CC(=O)OCCSSCCOC(=O)CCCN(C)C)cc1 [Example 8] |  |  | 2.83E+08 | superior gene expression activity |
| 7.8 | 0.168 | 96 | 12.1 | CCCCCCCCCCCCCCCCCCC(CCCCCCCCCCCCCCCCCC)C(=O)Oc1ccc(CC(=O)OCCSSCCOC(=O)CCCN(C)C)cc1 [Example 9] |  |  | 1.25E+08 | superior gene expression activity |
| 7.4 | 0.077 | 80 | 4.9 | CCCCCCCCCCCCCCCCC(CCCCCCCCCCCCCCCC)C(=O)Oc1ccc(CC(=O)OCCSSCCOC(=O)CCCN(CC)CC)cc1 [Example 10] |  |  | 1.90E+08 | superior gene expression activity |
| 6.2 | 0.071 | 84 | −4.4 | CCCCCCCCCCCCCCCCC(CCCCCCCCCCCCCCCC)C(=O)Oc1ccc(CC(=O)OCCSSCCOC(=O)CCCN(CCC)CCC)cc1 [Example 12] |  |  | 1.13E+05 |  |
| 6.2 | 0.064 | 105 | −2.6 | CCCCCCCCCCCCCCCCC(CCCCCCCCCCCCCCCC)C(=O)Oc1ccc(CC(=O)OCCSSCCN(CC)CC)cc1 [Example 17] |  |  | 8.39E+04 |  |
